target: MAPK14 (human) (UniProt Q16539); experiment: Inhibition of MAPK14 Kinase Activtiy
Sequence (Q16539 whole entry, looked up): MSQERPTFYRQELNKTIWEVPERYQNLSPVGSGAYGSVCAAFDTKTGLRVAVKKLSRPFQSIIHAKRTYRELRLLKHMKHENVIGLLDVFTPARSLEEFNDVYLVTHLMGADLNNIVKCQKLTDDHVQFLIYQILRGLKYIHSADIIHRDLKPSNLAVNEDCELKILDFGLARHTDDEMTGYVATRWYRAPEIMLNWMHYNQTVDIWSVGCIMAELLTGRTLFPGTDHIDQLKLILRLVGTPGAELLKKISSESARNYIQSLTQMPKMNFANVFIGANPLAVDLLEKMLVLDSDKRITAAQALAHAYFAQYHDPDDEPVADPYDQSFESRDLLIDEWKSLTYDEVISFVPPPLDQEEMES

IC50, < 100 nM:
CC(C)C[C@H](NCCCOc1cc(-c2ccc(F)cc2Cl)c2ccc(=O)n(-c3c(Cl)cccc3Cl)c2c1)C(=O)O
CC(C)C[C@H](NC1CCC(c2cc(-c3ccc(F)cc3Cl)c3c(c2)N(c2c(Cl)cccc2Cl)C(=O)CC3)CC1)C(=O)O (stereo not given in full)
CC(C)C[C@H](NCCCOc1cc(-c2ccc(F)cc2Cl)c2ccc(=O)n(-c3c(Cl)cccc3Cl)c2c1)C(=O)OC(C)C
O=C(O)[C@@H](NCCCOc1cc(-c2ccc(F)cc2Cl)c2ccc(=O)n(-c3c(F)cccc3F)c2c1)C1CCCCC1
CC(C)C[C@H](NCCCOc1cc(-c2ccc(F)cc2F)c2ccc(=O)n(-c3c(F)cccc3F)c2c1)C(=O)O
CC(C)(C)[C@H](NCCCOc1cc(-c2ccc(F)cc2Cl)c2ccc(=O)n(-c3c(Cl)cccc3Cl)c2c1)C(=O)O
CC(C)C[C@H](NCCCCCOc1cc(-c2ccc(F)cc2Cl)c2ccc(=O)n(-c3c(Cl)cccc3Cl)c2c1)C(=O)O
CC(C)C[C@H](NC[C@H](O)COc1cc(-c2ccc(F)cc2Cl)c2ccc(=O)n(-c3c(F)cccc3F)c2c1)C(=O)O
CC(C)(C)OC[C@H](NCCCOc1cc(-c2ccc(F)cc2Cl)c2ccc(=O)n(-c3c(Cl)cccc3Cl)c2c1)C(=O)OC1CCCC1
CC(C)C[C@H](NCCc1cc(-c2ccc(F)cc2Cl)c2ccc(=O)n(-c3c(Cl)cccc3Cl)c2c1)C(=O)O
O=C(O)[C@@H](NCCCOc1cc(-c2ccc(F)cc2Cl)c2ccc(=O)n(-c3c(Cl)cccc3Cl)c2c1)c1ccccc1
CC(C)C[C@H](NCCc1cc(-c2ccc(F)cc2Cl)c2ccc(=O)n(-c3c(F)cccc3F)c2c1)C(=O)O
CC(C)C[C@H](NCCCOc1cc(-c2ccc(F)cc2Cl)c2ccc(=O)n(-c3c(Cl)cccc3Cl)c2c1)C(=O)OC1CCN(C)CC1
CC(C)C[C@H](NCCCOc1cc(-c2ccc(F)cc2Cl)c2ccc(=O)n(-c3c(F)cccc3F)c2c1)C(=O)O
O=C(O)[C@@H](NCCCOc1cc(-c2ccc(F)cc2Cl)c2ccc(=O)n(-c3c(Cl)cccc3Cl)c2c1)C1CCCCC1
CC(C)C[C@H](NCCCOc1cc(-c2ccc(F)cc2Cl)c2ccc(=O)n(-c3c(Cl)cccc3Cl)c2c1)C(=O)OC1CCCC1
CC(C)(C)OC[C@H](NCCCOc1cc(-c2ccc(F)cc2Cl)c2ccc(=O)n(-c3c(Cl)cccc3Cl)c2c1)C(=O)O
CC(C)C[C@H](NCCCOc1cc(-c2ccc(F)cc2Cl)c2ccc(=O)n(-c3ccccc3)c2c1)C(=O)O
O=C(O)[C@@H](NCCCOc1cc(-c2ccc(F)cc2Cl)c2ccc(=O)n(-c3c(F)cccc3F)c2c1)c1ccccc1
CC(C)C[C@H](NC[C@@H](O)COc1cc(-c2ccc(F)cc2Cl)c2ccc(=O)n(-c3c(F)cccc3F)c2c1)C(=O)O
